Assay type in all cases: in vivo
Data set [1] concerns airways. Put plainly: Bronchodilation with targeted versus continuous delivery mode of volatile anesthetics (FIG. 8). The following applies: targeted vs continuous delivery. The source says:
The various delivery modes are at least targeted mode and continuous mode. […] Using the systems and methods described here, volatile anesthetics can be selectively delivered for a specified interval during inspiration.

Data set [2] deals with airways. Put plainly: Lung measurements for targeted isoflurane delivery during phases of treatment (FIG. 7). The following applies: following targeted therapy with isoflurane. An excerpt:
Severe sustained bronchospasm may be established using continuous i.v. infusion of methacholine. Using the anesthetic ventilator system, a user has the ability to control the timing, peak concentration, and duration of inhaled isoflurane delivery for various ranges of conventional ventilator rates and tidal volumes typical of ICU patients. In one embodiment, the solenoid valves (shown in FIG. 1) can be programmed to deliver isoflurane during the last 180 cc of the delivered inspired volume. Furthermore, none of the inhaled isoflurane delivered during the last portion of the inspiratory period reaches the alveolar compartment to reduce the risk of side effects and systemic absorption.
FIG. 7 are exemplary graphs 700 illustrating various lung measurements for targeted isoflurane delivery measured during various phases of treatment, according to an example embodiment. As shown in graphs 700, various lung measurements, including lung resistance (RL), lung elastance (EL), and dead space (VD), are measured as described above. […] The estimates of lung resistance and lung elastance may be obtained via multiple linear regression on measured flow and transplumonary pressure waveforms. Anatomic dead space may be estimated using breath-by-breath volume capnography. Capnography is the monitoring of the concentration or partial pressure of carbon dioxide in the respiratory gases. These measurements may be acquired at least under baseline conditions, during bronchoconstriction, after 10-20 minutes of volatile anesthetic treatment, and after maximal bronochodilation with i.v. atrophine. Airway constriction results in increased airway resistance and stiffening of the lung parenchyma, which is often measured with lung resistance and lung elastance. Measuring these parameters help in determining the effectiveness of the targeted delivery treatment.

A short description of data set [3]: Isoflurane traces during targeted and continuous delivery modes (FIG. 9). Conditions: two breaths. The source says: FIG. 9 are exemplary graphs 900 illustrating isoflurane traces during various delivery modes in relation to the delivered tidal volume for two breaths, according to an example embodiment. As shown in graphs 900, the solid line represents the amount of isoflurane in the lungs and the dotted line represents the tidal volume (Vt) over time.

The subject of a further data set is respiratory system. Briefly: Respiratory impedance spectrum (resistance and elastance) during MCh doses and after intravenous atropine. On the procedure: By combining specific frequencies such that there is physiologic tidal excursion, in an example embodiment, the EVW is able to maintain gas exchange during conventional ventilation while providing continuous assessment of Z. The EVW differs from other oscillatory waveforms in that it has been modified to allow passive expiration, so Z is calculated from the inspiratory portion of the breath only.
The mechanical impedance spectrum of the lungs or total respiratory system can be very sensitive indicators of bronchoconstriction and response to therapy. Although mathematically Z is a complex number with real and imaginary parts, it can be expressed in terms of effective frequency dependent resistance and elastance. Measurements can be obtained before and 5 minutes following a deep inspiration (DI) to 35 cm H2O, as well as after administration of intravenous atropine. Under pre and post-DI conditions, both respiratory resistance (Rrs) and elastance (Ers) increased at each frequency with increases in MCh dose. At the lowest frequencies, Rrs increased ˜50% during the highest dose of MCh compared with baseline due to increases in both airway and tissue resistances. The Ers increased by ˜65% as the parenchyma stiffens due to airway-tissue interdependence. […] Thus, the impedance spectra reveal subtleties of airway mechanics and response to therapy not evident from simple Rrs and Ers estimates measured at a single breathing frequency. Coupling these types of data to distributed models of airway and tissue mechanics then allows estimates of the heterogeneity of airway or tissue changes in addition to the overall lung properties.

Where [4] appears, read: following intravenous atropine, MCh 200 μg/min.
The mark [5] stands for this setting: following intravenous atropine, any frequency.

On to `FCOC(C(F)(F)F)C(F)(F)F` [sevoflurane], for which, in the data set on airways [1], the “bronchodilation, targeted delivery mode compared with continuous delivery mode” value is “slightly higher”.

As to `FC(F)OC(Cl)C(F)(F)F` (stereo not shown) [isoflurane], the “bronchodilation, targeted delivery mode compared with continuous delivery mode” value in the data set on airways [1] is “slightly higher”. Moreover, in the data set with airways [2], the “lung elastance (EL)” value is reported as “decreasing trend” and the “lung resistance (RL)” value was “decreasing trend”. Besides, the “estimation of dead space (VD)” value with airways [2] (evidence of bronchodilation) is “increasing”. For the same molecule, the “levels of isoflurane agent in the lungs, targeted compared with continuous delivery method” value in data set [3] (over time) was “lower for most of the time”. In data set [3], the “peak level of isoflurane, targeted compared with continuous delivery method” value is listed as “comparable”.

As for `CN1[C@@H]2CC[C@H]1C[C@@H](OC(=O)C(CO)c1ccccc1)C2` (stereo partly shown) [atropine], in the data set with respiratory system (setting [4]), the “Ers compared with value at the highest MCh dose” value is “decrease” and the “Rrs compared with value at the highest MCh dose” value is on record as “decrease”. In addition, in the data set on respiratory system (setting [5]), the “Ers compared with baseline value” is “no significant difference” and the “Rrs compared with baseline value” is on record as “no significant difference”.

Regarding `CC(=O)OC(C)C[N+](C)(C)C` (stereo not shown) [MCh, methacholine], the “increase in respiratory elastance (Ers)” value in the data set on respiratory system (highest dose of MCh) is given as about 65%. In addition, the “increase in respiratory resistance (Rrs) compared with baseline” value in the data set with respiratory system (lowest frequencies, highest dose of MCh (200 μg/min)) is recorded as about 50%.

The record behind these values is patent publication US20150290418A1, “TREATMENT OF RESPIRATORY CONDITION USING TARGETED DELIVERY” (Beth Israel Deaconess Medical Center, Inc., priority 2013, published 2015).
